Values of other authors in patent US20030219799A1, “Cancer-linked gene as target for chemotherapy” (priority 2002, published 2003).

How the values were obtained:
cultured cell lines = conditions: versus cis-platin and doxorubicin
[1] = in vitro
[2] = in vivo
[3] = tested on: cultured colon cancer cells
[4] = tested on: subcutaneous COLO 205 human colon tumor xenografts; conditions: mice, subcutaneous COLO 205 xenografts, doses well below the maximum tolerated dose

Cc1c[nH]c2c1[C@@]13C[C@@H]1CN(C(=O)c1cc4cc(NC(=O)c5cc6ccccc6o5)ccc4[nH]1)C3=CC2=O [Adozelesin]
toxicity to cultured cell lines relative to other DNA interacting agents (cultured cell lines): about 1,000 fold

COc1cc2cc(c1Cl)N(C)C(=O)C[C@H](OC(=O)[C@H](C)N(C)C(=O)CCS)[C@]1(C)O[C@H]1[C@H](C)[C@@H]1C[C@@](O)(NC(=O)O1)[C@H](OC)/C=C/C=C(\C)C2 [DM1]
cytotoxicity relative to maytansine [1]: up to 10 fold

COc1cc2cc(c1Cl)N(C)C(=O)C[C@H](OC(=O)[C@H](C)N(C)C(C)=O)[C@]1(C)O[C@H]1[C@H](C)[C@@H]1C[C@@](O)(NC(=O)O1)[C@H](OC)/C=C/C=C(\C)C2 [Maytansine]
value in human clinical trials [2]: little value

B1: immunoconjugate of the maytansinoid cytotoxin DM1 and C242 antibody: DM1 linked to C242, a murine IgG1 with affinity for a mucin-like glycoprotein of human colorectal cancers (conjugate, chains of the INN, looked up)
VH: QVQLVQSGAEVKKPGETVKISCKASDYTFTYYGMNWVKQAPGQGLKWMGWIDTTTGEPTYAQKFQGRIAFSLETSASTAYLQIKSLKSEDTATYFCARRGPYNWYFDVWGQGTTVTVSS
VL: DIVMTQSPLSVPVTPGEPVSISCRSSKSLLHSNGNTYLYWFLQRPGQSPQLLIYRMSNLVSGVPDRFSGSGSGTAFTLRISRVEAEDVGVYYCLQHLEYPFTFGPGTKLELK
modifications: DM1 maytansinoid conjugate
cytotoxicity against cultured colon cancer cells [3]: highly cytotoxic | anti-tumor effects in vivo [4]: anti-tumor effects
